{"source": "patent US20130005747A1", "about": "“METHOD FOR SELECTING A CANCER THERAPY” (Cyclacel Limited, priority 2010, published 2013)", "test_in_all_cases": "Fractional growth, 72 h seliciclib", "type_in_all_cases": "cell-based, human", "key": {"[1]": {"test_system": "22RV1", "settings": "22RV1 (Prostate), 15 μM seliciclib", "from_the_text": "(§1) A total of 270 human cancer cell lines from diverse cancer histopathologic types were investigated."}, "[2]": {"test_system": "A-204", "settings": "A-204 (Muscle), 15 μM seliciclib", "from_the_text": "as §1"}, "[3]": {"test_system": "ABC-1", "settings": "ABC-1 (Lung: NSCLC), 15 μM seliciclib", "from_the_text": "as §1"}, "[4]": {"test_system": "BFTC-909", "settings": "BFTC-909 (Kidney), 15 μM seliciclib", "from_the_text": "as §1"}, "[5]": {"test_system": "GP5d", "settings": "GP5d (Intestine), 15 μM seliciclib", "from_the_text": "as §1"}, "[6]": {"test_system": "H2052", "settings": "H2052 (Lung), 15 μM seliciclib", "from_the_text": "as §1"}, "[7]": {"test_system": "H4", "settings": "H4 (Brain), 15 μM seliciclib", "from_the_text": "as §1"}, "[8]": {"test_system": "HCC-366", "settings": "HCC-366 (Lung: NSCLC), 15 μM seliciclib", "from_the_text": "as §1"}, "[9]": {"test_system": "HCC1395", "settings": "HCC1395 (Breast), 15 μM seliciclib", "from_the_text": "as §1"}, "[10]": {"test_system": "HLE", "settings": "HLE (Liver), 15 μM seliciclib", "from_the_text": "as §1"}, "[11]": {"test_system": "HMVII", "settings": "HMVII (Skin), 15 μM seliciclib", "from_the_text": "as §1"}, "[12]": {"test_system": "HPAC", "settings": "HPAC (Pancreas), 15 μM seliciclib", "from_the_text": "as §1"}, "[13]": {"test_system": "Hs 633T", "settings": "Hs 633T (Miscellaneous), 15 μM seliciclib", "from_the_text": "as §1"}, "[14]": {"test_system": "HuH-7", "settings": "HuH-7 (Liver), 15 μM seliciclib", "from_the_text": "as §1"}, "[15]": {"test_system": "JHU-028EP", "settings": "JHU-028EP (Head & Neck), 15 μM seliciclib", "from_the_text": "as §1"}, "[16]": {"test_system": "LU65C", "settings": "LU65C (Lung: NSCLC), 15 μM seliciclib", "from_the_text": "as §1"}, "[17]": {"test_system": "LUDLU-1", "settings": "LUDLU-1 (Lung: NSCLC), 15 μM seliciclib", "from_the_text": "as §1"}, "[18]": {"test_system": "Lu-135", "settings": "Lu-135 (Lung), 15 μM seliciclib", "from_the_text": "as §1"}, "[19]": {"test_system": "MG-63", "settings": "MG-63 (Bone), 15 μM seliciclib", "from_the_text": "as §1"}, "[20]": {"test_system": "MS751", "settings": "MS751 (Cervix), 15 μM seliciclib", "from_the_text": "as §1"}, "[21]": {"test_system": "NCI-H1651", "settings": "NCI-H1651 (Lung: NSCLC), 15 μM seliciclib", "from_the_text": "as §1"}, "[22]": {"test_system": "NCI-H1734", "settings": "NCI-H1734 (Lung: NSCLC), 15 μM seliciclib", "from_the_text": "as §1"}, "[23]": {"test_system": "NCI-H2172", "settings": "NCI-H2172 (Lung: NSCLC), 15 μM seliciclib", "from_the_text": "as §1"}, "[24]": {"test_system": "NCI-H2452", "settings": "NCI-H2452 (Lung), 15 μM seliciclib", "from_the_text": "as §1"}, "[25]": {"test_system": "PA-TU-8988S", "settings": "PA-TU-8988S (Pancreas), 15 μM seliciclib", "from_the_text": "as §1"}, "[26]": {"test_system": "PCI-30", "settings": "PCI-30 (Head & Neck), 15 μM seliciclib", "from_the_text": "as §1"}, "[27]": {"test_system": "RCM-1", "settings": "RCM-1 (Intestine), 15 μM seliciclib", "from_the_text": "as §1"}, "[28]": {"test_system": "SCC-25", "settings": "SCC-25 (Head & Neck), 15 μM seliciclib", "from_the_text": "as §1"}, "[29]": {"test_system": "SK-OV-3", "settings": "SK-OV-3 (Ovary), 15 μM seliciclib", "from_the_text": "as §1"}, "[30]": {"test_system": "SNU-398", "settings": "SNU-398 (Liver), 15 μM seliciclib", "from_the_text": "as §1"}, "[31]": {"test_system": "SU.86.86", "settings": "SU.86.86 (Pancreas), 15 μM seliciclib", "from_the_text": "as §1"}, "[32]": {"test_system": "SW 1573", "settings": "SW 1573 (Lung: NSCLC), 15 μM seliciclib", "from_the_text": "as §1"}, "[33]": {"test_system": "Sarc9371", "settings": "Sarc9371 (Bone), 15 μM seliciclib", "from_the_text": "as §1"}, "[34]": {"test_system": "SiHa", "settings": "SiHa (Cervix), 15 μM seliciclib", "from_the_text": "as §1"}, "[35]": {"test_system": "TCCSUP", "settings": "TCCSUP (Bladder), 15 μM seliciclib", "from_the_text": "as §1"}, "[36]": {"test_system": "TOV-112D", "settings": "TOV-112D (Ovary), 15 μM seliciclib", "from_the_text": "as §1"}, "[37]": {"test_system": "XPA-4", "settings": "XPA-4 (Pancreas), 15 μM seliciclib", "from_the_text": "as §1"}}, "data": [{"smiles": "CC[C@H](CO)Nc1nc(NCc2ccccc2)c2ncn(C(C)C)c2n1", "note": "[seliciclib, roscovitine]", "values": [{"measurement": "Fractional Growth", "setting": "[1]", "value": 0.7432}, {"measurement": "Fractional Growth", "setting": "[2]", "value": 0.2653}, {"measurement": "Fractional Growth", "setting": "[3]", "value": 0.6543}, {"measurement": "Fractional Growth", "setting": "[4]", "value": 0.7132}, {"measurement": "Fractional Growth", "setting": "[5]", "value": 0.7382}, {"measurement": "Fractional Growth", "setting": "[6]", "value": 0.3892}, {"measurement": "Fractional Growth", "setting": "[7]", "value": 0.9708}, {"measurement": "Fractional Growth", "setting": "[8]", "value": 0.2561}, {"measurement": "Fractional Growth", "setting": "[9]", "value": 0.6999}, {"measurement": "Fractional Growth", "setting": "[10]", "value": 0.1553}, {"measurement": "Fractional Growth", "setting": "[11]", "value": 0.4646}, {"measurement": "Fractional Growth", "setting": "[12]", "value": 0.7062}, {"measurement": "Fractional Growth", "setting": "[13]", "value": 0.41}, {"measurement": "Fractional Growth", "setting": "[14]", "value": 0.3911}, {"measurement": "Fractional Growth", "setting": "[15]", "value": 0.3716}, {"measurement": "Fractional Growth", "setting": "[16]", "value": 0.3767}, {"measurement": "Fractional Growth", "setting": "[17]", "value": 0.7029}, {"measurement": "Fractional Growth", "setting": "[18]", "value": 0.2812}, {"measurement": "Fractional Growth", "setting": "[19]", "value": 0.5484}, {"measurement": "Fractional Growth", "setting": "[20]", "value": 0.3573}, {"measurement": "Fractional Growth", "setting": "[21]", "value": 0.6289}, {"measurement": "Fractional Growth", "setting": "[22]", "value": 0.2849}, {"measurement": "Fractional Growth", "setting": "[23]", "value": 0.6197}, {"measurement": "Fractional Growth", "setting": "[24]", "value": 0.4571}, {"measurement": "Fractional Growth", "setting": "[25]", "value": 0.5791}, {"measurement": "Fractional Growth", "setting": "[26]", "value": 0.5541}, {"measurement": "Fractional Growth", "setting": "[27]", "value": 0.6689}, {"measurement": "Fractional Growth", "setting": "[28]", "value": 0.571}, {"measurement": "Fractional Growth", "setting": "[29]", "value": 0.7375}, {"measurement": "Fractional Growth", "setting": "[30]", "value": 0.0473}, {"measurement": "Fractional Growth", "setting": "[31]", "value": 0.3887}, {"measurement": "Fractional Growth", "setting": "[32]", "value": 0.6076}, {"measurement": "Fractional Growth", "setting": "[33]", "value": 0.6425}, {"measurement": "Fractional Growth", "setting": "[34]", "value": 0.4302}, {"measurement": "Fractional Growth", "setting": "[35]", "value": 0.6407}, {"measurement": "Fractional Growth", "setting": "[36]", "value": 0.3156}, {"measurement": "Fractional Growth", "setting": "[37]", "value": 0.3444}]}]}
